Test results as given in US8541607B2, “Disulfide, sulfide, sulfoxide, and sulfone derivatives of cyclic sugars and uses thereof” (Lacer, S.A., priority 2003, dated 2013).

Experiments:
[1] = test system: apo E-deficient mouse (OLA129X C57/BL6J); test: Atherogenesis in apo E-deficient mouse on standard diet; format: in vivo; conditions: 5 mg/Kg/day, 12 weeks
From the text: Preventing and curative effect on atherogenesis of the compounds it is investigated in apo E-deficient mouse fed on standard diet model. Male and female apo E-deficient mouse (OLA129X C57/BL6J) of three months old were fed on standard diet. The control group included 8 males and 7 females mouse, while the treated group consist of 8 males and 7 females mouse. All the animals had similar cholesterol and body weight at the beginning of the experiment. Both the control and the treated groups were studied for 12 weeks. The treated group received 5 mg/Kg/day of the compound (12).
Plasma lipid parameters (total cholesterol, HDL cholesterol and triglycerides) and oxidative stress (measured as 8-iso-prostaglandin F2α levels) were measured at predetermined intervals. After completion of the administration period, the thoracic aorta was isolated and stained to determine the area of the atherosclerotic injuries deposited in the internal wall of the blood vessel in according with the Red Oil method (Lillie, R. D., 1994, Stain Technology, vol. 19, pp 55).

[2] = test system: New Zealand White rabbits fed 1% cholesterol diet; test: Atherogenesis in rabbits fed on high cholesterol diet; format: in vivo, rabbit
Description: The method used is substantially the same as described in Shore B, Shore V., In: Day CE (ed) Atherosclerosis Drug Discovery, Plenum Press, New York and London, pp 123-141, 1976.
Twenty-one male New Zealand White rabbits (10 weeks old at the beginning of the protocol) were maintained under standardized conditions (22° C., 40% to 60% humidity) with regular day/night cycle and free access to water. The animals were randomly assigned to 1 of 3 groups. Group 1 (n=5) received standard maintenance diet for 75 days; group 2 (n=16) received the same diet but supplemented with 1% (wt/wt) cholesterol for 45 days. At the end of this period, group 2 was classified into two randomly groups. The treated-group (n=9) receiving for additional 30 days 1.9 mg/kg/day of compound 12 (maintaining the 1% cholesterol in its diet), and the non-treated group (n=[…]) receiving a diet with a 1% of cholesterol for additional 30 days.
Study variables included triglycerides and total cholesterol. Animals were euthanized on day 75 after the start of the protocol with pentobarbital i.v. The entire aorta was removed 1 or 2 cm into the iliac arteries and fixed in buffer phosphate 0.1 M (pH 7.4) with glutaraldehyde (4%). Macroscopic and microscopic analyses of the samples were performed in a blinded fashion. Aortas were dissected and stained with Red Oil. Adventitial fat was removed, and aortas were opened longitudinally, immersed in Red Oil solution for overnight, washed in propylenglycol and fixed onto a flat surface. Images of the aortas were taken with a standard camera. Subsequently, 3 sections were taken from the aortic arch area, the thoracic aorta, and at the abdominal aorta (renal orifices). Sections were paraffin-embedded, were cut with a microtome Ultracut (Spain) and stained conventionally with hematosiline eosin. Images of aortas stained with Red Oil and hematosiline eosin were taken with a standard camera. Images were imported into Photoshop (Adobe) with a AGFA slide scanner. By means of the procedure previously described by Lillie RD (Lillie, R. D., 1994, Stain Technology, vol. 19, pp 55) the surface of injury in all the aorta and the thickness of the intima in histological samples was determined. The surface or area of the atherosclerotic injury (evaluated from the stained aortas with the Red Oil) are determined by the number of pixels of the image turned to mm^2. The intima thickness of the arteria (evaluated from the stained histological samples with Haematosiline-Eosin) was quantified in mm in a similar way to that described the surface or area of the atherosclerotic injury. For it, the sections that contained injuries of fatty striae were selected and the thickness of the intima was determined (from the arterial media to endothelium). The mean thickness of the lesion area was assessed in representative sections per aortic quadrant, and the statistical mean was calculated.

[3] = test system: platelet adhesion to HUVEC activated by LDLmm; test: Inhibition of platelet adhesion to HUVEC activated by LDLmm; format: cell-based, human; conditions: HUVEC activated by LDLmm (50 μg/ml); mean ± s.e.m.
From the text: The methods used in the assays to determine the effect of the compounds on platelet and monocyte adhesion to human endothelial cells are substantially the same as described in the following references: • Del Maschio A. et al., J Cell Biol 1996; 135: 497-510 • Bombeli T. et al., Blood 1999; 93: 3831-3838 • Colomé C. et al; Atherosclerosis 2000; 149: 295-302; and • Martin-Satue M. at al; British Journal of Cancer 1999; 80; 1169-1174
The adhesion of the U937-monocyte cells to confluent human microvasculature endothelial cells (HMEC-1) activated by means of TNF-α (50 ng/ml) and the platelets to human umbilical endothelial cells (HUVEC) were the methods used to determine the inhibitory effect of compounds on cellular adhesion. The adhesion of monocytes previously labeled with calcein-2M (Molecular Probes) to HMEC-1 activated by TNF-α, was assessed by determination of the associated-cell fluorescence. The adhesion of washed human platelets previously labeled with MoAb against CD36-FITC to activated-HUVEC (50 μg/ml of LDL minimally modified, LDLmm) was determined by Laser Scanning Cytometry (LSC, Olympus) determining the associated-cell fluorescence. Results are expressed as the percentage of inhibition respect to control (adhesion of the cells in the absence of compounds).

[4] = test system: heart (AVP-induced coronary vasoconstriction); test: In vivo protection against ischemia-reperfusion damage in the heart (arginine-vasopressin induced S-wave depression); conditions: p.o.; for S-wave decrement: 1 h before AVP 0.3 U/kg, vehicle 46.2 ± 4.9
Description: Experiments were performed according to the model previously described by Hirata Y at al (Journal of Cardiovascular Pharmacology, 1998, 31: 322-326)
After a food fasting period of 6 hours, animals were divided into groups of at least 8 animals each. Doses of products were given by oral sounding 1 h before the ischemia induction. Animals were anaesthetized with pentobarbital (40 mg/kg, i.p.) and the standard limb lead II electrocardiogram was recorded to detect the S-wave depression. 0.3 U/kg arginine-vasopressin (AVP) (Sigma Chemicals, St Louis, Mo., USA) was injected into the carotid artery to induce vasoconstriction of small coronary arteries and increase in coronary resistance. In all the groups received AVP 60 min after, the test drug. In all groups, after AVP injection of 10 minutes ECG recording was performed.
The results are shown in table 16 and are expressed as S-wave decrements (μvolts).

[5] = 1.9 mg/kg/day for 30 days, 1% cholesterol diet, end, mean ± s.e.m.
[6] = treated group, basal, mean ± s.e.m.

CC(=O)S[C@H]1CO[C@H]2[C@@H]1OC[C@H]2O[N+](=O)[O-] [(12), 2-acetylthio-isosorbide-5-mononitrate]
levels of triglycerides in plasma (in words) [1]: decrease
oxidative stress (in words) [1]: decrease
HDL-cholesterol, Female ([1]; female, control 0.4 ± 0.1, mean ± s.d.): 0.48 ± 0.13 mmol/L
Triglycerides, Female ([1]; female, control 1.9 ± 0.6, mean ± s.d.): 1.3 ± 0.2 mmol/L
Total cholesterol, Female ([1]; female, control 9.5 ± 2, mean ± s.d.): 11.3 ± 1.5 mmol/L
8-iso-prostaglandin F2α, Female ([1]; female, oxidative stress, control 182 ± 19, mean ± s.d.): 99 ± 7 pg/mL
HDL-cholesterol, Male ([1]; male, control 0.5 ± 0.15, mean ± s.d.): 0.47 ± 0.15 mmol/L
Triglycerides, Male ([1]; male, control 2.6 ± 0.6, mean ± s.d.): 1.5 ± 0.4 mmol/L
Total cholesterol, Male ([1]; male, control 14.3 ± 2, mean ± s.d.): 18 ± 3 mmol/L
8-iso-prostaglandin F2α, Male ([1]; male, oxidative stress, control 273 ± 19, mean ± s.d.): 101 ± 13 pg/mL
Plasmatic Total cholesterol, End [2, 5]: 1461 ± 147 mg/dL
Plasmatic Triglycerides, End [2, 5]: 347 ± 82 mg/dL
influence upon lipid metabolism (plasma lipids vs control) ([2]; 1.9 mg/kg/day for 30 days, in words): did not influence upon lipid metabolism
Plasmatic Total cholesterol, Basal [2, 6]: 33.3 ± 4.1 mg/dL
Plasmatic Triglycerides, Basal [2, 6]: 121 ± 34 mg/dL
% of inhibition to control, platelet adhesion [3]: 87.5% ± 5.1%
Protection of S-wave decrement ([4]; 20 mg/kg): 52%
S-wave decrement ([4]; 20 mg/kg): 22.6 ± 5.9 μV
Protection of S-wave decrement ([4]; 100 mg/kg): 81%
S-wave decrement ([4]; 100 mg/kg): 8.6 ± 2.8 μV
